Data as given in US20130005759A1, “SMALL MOLECULE MODIFIERS OF MICRORNA MIR-122” (North Carolina State University, priority 2010, published 2013).

Key:
pri-miR-122 = assay: quantitative RT PCR of pri-miR-122 in Huh7 cells; format: cell-based, human; conditions: Huh7, 10 μM, 48 hours, normalized to DMSO
Description: The activity of the small molecule modifiers was analyzed by quantitative RT PCR in order to measure their direct effects on miR-122 expression levels in Huh7 cells. […] All experiments were conducted in triplicate, and the data was normalized to a DMSO control.
Each treatment was conducted in triplicate to ensure statistical validity. Cells were then incubated at 37° C. for 48 hours (DMEM, 5% CO2). The media was removed, and cells were washed with PBS buffer (2×2 mL, pH 7.4) followed by RNA isolation with the mirPremier™ microRNA Isolation Kit (Aldrich). The RNA was quantified using a Nanodrop ND-1000 spectrophotometer and 10 ng of each RNA sample was reverse transcribed using the TaqMan™ microRNA Reverse Transcription Kit (Applied Biosystems) in conjunction with either the miR-122 or miR-21 TaqMan™ RT primer (16° C., 30 min; 42° C., 30 min; 85° C., 5 min). Quantitative Real Time PCR was conducted with a TaqMan™ 2× Universal PCR Master Mix and the appropriate TaqMan™ miRNA assay (Applied Biosystems) on a BioRad MyiQ RT-PCR thermocycler (1.3 μL RT PCR product; 95° C., 10 min; followed by 40 cycles of 95° C., 15 s; 60° C. 60 s). […]

[1] = system: hepatitis C virus (HCV) genotype 1a H77c RNA; assay: HCV replication in Huh7 cells (HCV RNA by quantitative RT PCR); format: cell-based; conditions: Huh7, 10 μM (antagomir transfected), 48 hours
Description: Aberrantly regulated miR-122 is involved in the development of heptocellular carcinoma (HCC). miR-122 is a cellular component required by hepatitis C virus (HCV) for viral replication. […] Due to the efficient down-regulation of miRNA-122 by the small molecule inhibitors 1 and 2, both compounds were tested for their ability to inhibit HCV replication in Huh7 cells. The pHtat2Neo/QR/KR/FV/SI plasmid (provided by Dr. Stanley Lemon of University of Texas Medical Branch (UTMB)) was used to generate genotype 1a H77c RNA, which was subsequently transfected into Huh7 cells.^16 The cells were then either transfected with a miR-122 antagomir (positive control), or treated with compounds 1 and 2 (10 μM), or DMSO (negative control). After 48 hours, total RNA was isolated and HCV RNA levels were measured by quantitative RT PCR (FIG. 7). In agreement with previous reports, the antagomir reduced HCV RNA levels to 20%.^6 Moreover, the small molecule miR-122 inhibitors 1 and 2 elicited a reduction in viral load to 48% and 47%, respectively.
The pHtat2Neo/QR/KR/FV/SI plasmid (provided by Dr. Stanley Lemon)^16 was linearized using XbaI (10 units, 50 μL reaction; New England Biolabs), followed by transcription with T7 RNA Polymerase (6 h, 37° C.), and purification on Microcon 10 columns. Huh7 cells were then grown to 60% confluency in a 6 well plate and transfected with 1 μg RNA using X-tremGENE transfection reagent (Roche Applied Science, 3:2 reagent/RNA ratio) in Opti-Mem media (Invitrogen). After a 4 hour incubation at 37° C., the transfection media was removed and replaced with standard growth media (2 mL) supplemented with 10 μM of 1 or 2 (1% DMSO final concentration). All experiments were conducted in triplicate for statistical validation. […] Quantitative RT-PCR was then performed as previously described using the general HCV RT-PCR Primers (5′: […] 3′ (SEQ ID NO:7) and 5′ […] 3′) (SEQ ID NO:8) and GADPH primers (5′ […] 3′ (SEQ ID NO:9) and 5′ […] 3′) (SEQ ID NO:10) as a standard control.

For `O=S(=O)(c1ccc2c(c1)CCCN2)N1CCC[C@H]2CCCC[C@@H]21` [Compound 2], the “pri-miR-122 down-regulation to (remaining level)” value (pri-miR-122) was 3% and the “HCV RNA levels / viral load reduced to” value [1] was 47%.

`O=C(Nc1ccc2ccccc2c1)c1ccc(Cl)cc1Cl` [Compound 1] was tested, and the “pri-miR-122 down-regulation to (remaining level)” value (pri-miR-122) was 22% and the “HCV RNA levels / viral load reduced to” value [1] was 48%.
